From PMC12670400, “LEKTI-Grafted Sunflower Trypsin Inhibitor: A Potential Therapeutic for Skin Diseases” (Journal of Medicinal Chemistry, 2025) come the findings set out here.

Where two headings read alike, the source gives them in different places. Bridge positions count the residues as written; N and C are the ends. Peptide text beside a SMILES is read from it. Some results are limits rather than exact numbers.

One data set deals with T1, KLK5 (Homo sapiens, UniProt Q9Y337).
T1 construct: purchased R&D Systems 1108-SE
T1 sequence (Q9Y337 23-293): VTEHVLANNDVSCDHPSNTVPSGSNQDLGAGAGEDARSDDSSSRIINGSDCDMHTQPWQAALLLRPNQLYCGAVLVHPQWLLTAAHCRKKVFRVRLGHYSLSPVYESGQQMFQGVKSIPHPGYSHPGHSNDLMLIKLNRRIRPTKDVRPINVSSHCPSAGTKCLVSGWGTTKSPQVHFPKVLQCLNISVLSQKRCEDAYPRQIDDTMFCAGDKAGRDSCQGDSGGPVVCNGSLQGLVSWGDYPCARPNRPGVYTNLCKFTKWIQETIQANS
In words: Protease activity assay: inhibition of recombinant KLK5 (Boc-VPR-AMC substrate). The class given is biochemical. On the procedure:
Inhibitory activity against KLK5 was evaluated using the fluorogenic substrate Boc-VPR-AMC for KLK5 (Table ). […] The P1–P1′ reactive site (Arg5 to Ser6) is critical for inhibitor binding, with the P1′ position contributing up to 50% of the total association energy. , The conserved serine at P1′ in Bowman-Birk inhibitors (BBIs) is essential for function. […] Preservation of serine in the P1′ position restored inhibitory activity seen in 5 and 6. Preserving the native serine restored efficacy to the nanomolar range (5: 31 ± 7 nM; 6: 114 ± 11 nM).
Methods for biological experiment
SFTI analogues were created by individual amino acid substitutions in PYMOL (Python Molecular Graphics System) using the existing solution NMR structure of native SFTI - 1 (1JBL) found in the RCSB (Research Collaboratory for Structural Bioinformatics) database. Residues of 2 were mutated as follows: L5R, I10H, and F12W with conserved SFTI-1 backbone structure. Other SFTI based analogues were further modified using PYMOL. Currently, there are no SFTI-1 and Kallikrein 5 co-crystal structures found in the RCSB database. Superimposing the existing crystal structure of SFTI-1 and Trypsin complex (4XOJ) with Kallikrein 5 crystal structure (2PSX) was performed with PYMOL. Ab-initio docking between KLK5 and 2 were performed with HADDOCK 2.4 1, 2, with binding active site parameter set to Arg2, Cys3, Thr4, Arg5, Ser6 for 2 and Ser195, His57, and Asp102 for KLK5 catalytic triad. PRODIGY 3-5, set at 25 °C, was used to predict dissociation constant and binding interactions of docked clusters. Structural visualization and alignment were performed with PYMOL 6, and comparative sequence analysis was performed with MEGA11 7.
A fluorescence spectrometer using SpectraMax® i3x plate reader (Molecular Devices, United States) was used to measure the relative fluorescence unit (RFU) on a 96-well black microplate (Grenier Bio-one, cat no. 655074). The wavelengths were set to 360/460 nm (excitation/emission) for the substrate Boc-VPR-AMC (Bachem AG, cat no. 4003460) and 320/405nm for the substrate Mca-RPKPVE-Nval-WRK(Dnp)-NH2 Fluorogenic MMP Substrate (R&D Systems Biotechne, cat no.ES002). The Boc-VPR-AMC stock solution was prepared by dissolving the solid form in dimethyl sulfoxide to 100 mM. Mca-RPKPVE-Nval-WRK(Dnp)-NH2 fluorogenic MMP Substrate is supplied as stock solution at 10.0 mg/mL in dimethyl sulfoxide. Boc-VPR-AMC was used as a substrate for KLK5, 8 and 14. Mca-RPKPVE-Nval-WRK(Dnp)-NH2 was used as a substrate for KLK7. The ligand-only solution serves as a negative control (minimum RFU, 100% inhibition), and enzyme-only was served as positive (maximum RFU, 0% inhibition). The activities of proteases were measured and readout against the standard curve made in serial dilutions of tested recombinant KLKs, ranging from 0nM to 60nM. Each assay was done in triplicates and repeated at least for three times […]
Assessment of analogue mediated inhibition of KLK5, KLK7, KLK8, and KLK14 […]
Recombinant KLK5 (R&D Systems, cat no. 1108-SE) was diluted to a final concentration of 10 nM in 1X PBS (pH 8.0). KLK5 was pre -incubated on ice for 1 hour with serial dilutions of SFTI-derived analogues to assess inhibitory activity. After incubation, 20 µL of each mixture was transferred to we lls of a 96-well microplate in triplicates. The enzymatic reaction was initiated by adding 100 µL of Boc -VPR-AMC substrate (final concentration 100 µM) to each well. Fluorescence (RFU) was measured using a SpectraMax® i3x plate reader with chamber temperature maintained at 37°C. Readings were started at 0 minutes (baseline) and another […]
Recombinant KLK7 (R&D Systems , cat no. 2624-SE) and KLK14 (R&D Systems, cat no. 2664-SE) were activated by adding 1 mM CaCl ₂ 0.05% v/v Brij-35 (Sigma, cat no. […]
incubated at 37°C for 1 hour. Reactions were stopped by adding EDTA to a final concentration of 50 mM (Sigma, cat no. EDS-100G) KLK8 (catalytic domain only; R&D Systems, cat no. 2025-SE-010) was activated separately with 11 nM lysyl […]

For data set [1] the following is noted: amide bond, 42-membered ring, then NH4HCO3 air oxidation, 2 steps.
The next data set addresses T2, KLK14 (UniProt Q9P0G3).
T2 sequence (Q9P0G3 41-267, species assumed, looked up): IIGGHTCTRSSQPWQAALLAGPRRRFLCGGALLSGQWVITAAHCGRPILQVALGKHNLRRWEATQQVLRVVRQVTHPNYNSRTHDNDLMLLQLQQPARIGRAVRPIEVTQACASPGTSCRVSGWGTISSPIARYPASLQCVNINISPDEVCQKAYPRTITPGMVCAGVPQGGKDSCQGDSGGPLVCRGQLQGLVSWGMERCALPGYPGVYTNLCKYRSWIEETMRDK
In words: enzyme inhibition assay (fluorogenic substrate); selectivity: inhibition of KLK7, KLK8 or KLK14 activity by the peptide, n = 3; substrates and conditions in the Supporting Information.

The target of a further data set is KLK7 (Homo sapiens, UniProt P49862). The description is as above.
In data set [2] the target is Kallikrein-related peptidase 5 (KLK5) (UniProt Q9Y337 23-293). In words: enzyme inhibition assay (fluorogenic substrate); inhibition of KLK5 activity by the peptide, fluorogenic substrate Boc-VPR-AMC, n = 3; conditions in the Supporting Information. The conditions noted are these: both partners purified.
The target of the next data set is T3, KLK8 (UniProt O60259 33-260).
T3 construct: Kallikrein 8 (KLK8); construct and source are in the Supporting Information
T3 sequence (looked up): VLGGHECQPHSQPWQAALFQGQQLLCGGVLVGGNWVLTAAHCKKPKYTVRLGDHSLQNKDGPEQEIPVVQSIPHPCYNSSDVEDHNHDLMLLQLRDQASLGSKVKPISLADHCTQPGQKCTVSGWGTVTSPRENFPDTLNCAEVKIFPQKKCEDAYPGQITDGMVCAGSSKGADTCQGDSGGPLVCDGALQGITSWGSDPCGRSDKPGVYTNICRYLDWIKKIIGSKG
Nature of the data set: enzyme inhibition assay (fluorogenic substrate); selectivity: inhibition of KLK7, KLK8 or KLK14 activity by the peptide, n = 3; substrates and conditions in the Supporting Information. The conditions noted are these: both partners purified.

Where [3] appears, read: MESNa/TCEP (N-to-S acyl shift, NCL), 0.1 M sodium phosphate pH 5.8, 50.0 °C.
Setting [4] is: NaNO2, MPAA (NCL), TCEP, 6 M guanidinium chloride buffer, 1.0 mM, 25.0 °C.

Regarding `CC[C@H](C)[C@@H]1NC(=O)[C@H](CO)NC(=O)[C@H](CCCNC(=N)N)NC(=O)[C@H]([C@@H](C)O)NC(=O)[C@@H]2CSSC[C@H](NC(=O)[C@H](Cc3c[nH]cn3)NC(=O)[C@@H]3CCCN3C(=O)[C@@H]3CCCN3C1=O)C(=O)N[C@@H](Cc1c[nH]c3ccccc13)C(=O)N1CCC[C@H]1C(=O)N[C@@H](CC(=O)O)C(=O)NCC(=O)N[C@@H](CCCNC(=N)N)C(=O)N2` [compound 2] (cyclo(CTRSIPPHCWPDGR); disulfide 1-9), the IC50 on KLK5 (n = 3, 10 nM KLK5, Boc-VPR-AMC 100 µM, PBS pH 8.0, read-out: IC50 (n = 3)/nM for KLKs: KLK5) is 54 ± 3 nM. With `N=C(N)NCCC[C@@H]1NC(=O)[C@H](Cc2c[nH]cn2)NC(=O)[C@@H]2CSSC[C@H](NC(=O)[C@H](CCC(=O)O)NC(=O)[C@@H]3CCCN3C(=O)[C@@H]3CCCN3C(=O)[C@H](Cc3ccc(O)cc3)NC(=O)[C@H](CO)NC1=O)C(=O)N[C@@H](Cc1c[nH]c3ccccc13)C(=O)N1CCC[C@H]1C(=O)N[C@@H](CC(N)=O)C(=O)NCC(=O)N[C@@H](Cc1ccccc1)C(=O)N2` [compound 8], at KLK5 (ratio of IC50 values), the “increase in KLK5 inhibitory potency (IC50) compared to 2” value is listed as 7 fold and the “increase in KLK5 inhibitory potency (IC50) relative to 1” value turned out to be 28 fold. Regarding GFCHREYPPHCWPN, the ring closure, yield after HPLC in data set [1] (setting [3]) amounted to 18%.

On to GFCHRSYPPECWPN, for which the ring closure, yield after HPLC in data set [1] (setting [4]) was found to be 6%. On to GFCHRSYPPHCWPN, for which, in data set [1] (setting [3]), the ring closure, yield after HPLC worked out at 15%.

As to GFCTRENPPHCWPN, in data set [1] (setting [3]), the ring closure, yield after HPLC came out at 14%. As for GFCTRSNPPECWPN, the ring closure, yield after HPLC in data set [1] (setting [4]) was 8%. GFCTRSNPPHCWPN: in data set [1] (setting [3]), the ring closure, yield after HPLC was 15%.

GRCTRSIPPHCWPD: in data set [1] (setting [3]), the ring closure, yield after HPLC amounted to 18%.

Molecule GSCTRSSPPECWPN registered a ring closure, yield after HPLC in data set [1] (setting [4]) of 9%. On to GYCTRSSPPECWPN, for which, in data set [1] (setting [4]), the ring closure, yield after HPLC was 12%. cyclo(GRCTRSIPPHCWPD) (disulfide 3-11 (inferred)) [SFTI-1 triple mutant 2, cyclo-[…]]: the IC50 with KLK14 worked out at 24 nM; in the data set with KLK7 it was 534 nM.

B1: SFTI analogue 3 (peptide)
peptide: cyclo(GFCTRENPPHCWPN)
modifications: disulfide 3-11 (inferred)
notes: scaffold of analogue 2 grafted with residues of a LEKTI domain; source: synthetic peptide (Fmoc solid-phase synthesis, cyclised via N to S acyl shift, oxidised, RP-HPLC purified)
B1 showed an IC50 in data set [2] of 1800 ± 58 nM.

B2: SFTI-1 triple mutant 2, cyclo-[GRCTRSIPPHCWPD] (peptide)
peptide: cyclo(GRCTRSIPPHCWPD)
modifications: disulfide 3-11 (inferred)
notes: numbers count on: the mature 14-residue cyclic peptide; source: synthetic peptide (Fmoc solid-phase synthesis, cyclised via N to S acyl shift, oxidised, RP-HPLC purified)
In turn, B2 had an IC50 in the data set with KLK8 of 373 ± 31 nM.

B3: SFTI analogue 5 (peptide)
peptide: cyclo(GFCTRSNPPHCWPN)
modifications: disulfide 3-11 (inferred)
notes: scaffold of analogue 2 grafted with residues of a LEKTI domain, serine kept at P1'; source: synthetic peptide (Fmoc solid-phase synthesis, cyclised via N to S acyl shift, oxidised, RP-HPLC purified)
As for B3, the IC50 in data set [2] was found to be 31 ± 7 nM.

B4: SFTI analogue 9 (peptide)
peptide: cyclo(GSCTRSSPPECWPN)
modifications: disulfide 3-11 (inferred)
notes: SFTI scaffold grafted with residues of a further LEKTI domain, glutamic acid at position 10; source: synthetic peptide (hydrazide peptide, cyclised via native chemical ligation, oxidised, RP-HPLC purified)
With B4, the IC50 with KLK14 and with KLK8 was more than 1000 nM in each case.

B5: SFTI analogue 10 (peptide)
peptide: cyclo(GYCTRSSPPECWPN)
modifications: disulfide 3-11 (inferred)
notes: as for B4
Take B5: the IC50 with KLK14 and with KLK8 was more than 1000 nM in each case.

B6: SFTI analogue 6 (peptide)
peptide: cyclo(GFCHRSYPPHCWPN)
modifications: disulfide 3-11 (inferred)
notes: scaffold of analogue 2 grafted with residues of a LEKTI or LEKTI-like domain, serine kept at P1'; source: synthetic peptide (Fmoc solid-phase synthesis, cyclised via N to S acyl shift, oxidised, RP-HPLC purified)
For the molecule B6, the IC50 in data set [2] worked out at 114 ± 11 nM.

B7: SFTI analogue 4 (peptide)
peptide: cyclo(GFCHREYPPHCWPN)
modifications: disulfide 3-11 (inferred)
notes: scaffold of analogue 2 grafted with residues of a LEKTI or LEKTI-like domain; source: synthetic peptide (Fmoc solid-phase synthesis, cyclised via N to S acyl shift, oxidised, RP-HPLC purified)
In data set [2], B7 returned an IC50 of 1490 ± 50 nM.
